Measurements published in patent US12496281B2, “Compounds for prevention and treatment of hemorrhage and vasculature instability” (Abrexa Pharmaceuticals, Inc., priority 2020, dated 2025).

Tests used:
[1] = system: suture MCAO-induced ischemia followed by reperfusion; test: J147 dose-response, 2-hour suture MCAO followed by reperfusion, 72 h (Example 3); assay type: in vivo, SD rats
Procedure: Objective: […] Methods: […] J147 compound (1.0, 10, 30 mg/kg) and vehicle were administered at 2 hours after onset of ischemia (FIG. 5). Bederson score was examined prior to the sacrifice at 72 h after stroke. Infarct volumes in TTC-stained brain coronal sections were measured.

eMCAO, 4 μm blood clot = test: J147 alone in embolic MCAO (eMCAO) model without tPA or reperfusion (Example 5); assay type: in vivo, SD rats; conditions: J147 alone 1 mg/ml or 10 mg/ml i.v., or 30 mg/ml i.p. two hours after stroke onset; no tPA, no reperfusion; 24 hours after stroke
Procedure: In this example, an eMCAO experiment was performed to determine if J147 alone (i.e., without administration of TPA or other thrombolytic intervention) provided any therapeutic benefit for stroke in the absence of reperfusion caused by TPA.

[2] = system: suture-type transient middle cerebral artery occlusion (MCAO) model; test: Suture transient MCAO model, 2 h ischemia, reperfusion 24 h (Example 1); assay type: in vivo, Sprague Dawley rats; conditions: for infarct volume (TTC staining) relative to placebo: 24 h after reperfusion
Procedure: In this model, J147 was administered i.v. at doses of 1 mg/kg, 10 mg/kg and 30 mg/kg of total body weight immediately after reperfusion (i.e., about 2 hours after ischemia onset). […] Maximum volume (iv., bolus)=5 ml/kg. (ip., bolus)=10 ml/kg. […] The Bederson scale is a global neurological assessment that was developed to measure neurological impairments following stroke. Tests include forelimb flexion, resistance to lateral push and circling behavior. In this case, a Bederson grading scale of 0-5 was used to assess behavioral deficits after reperfusion. This scoring scale is a simple way to reveal basic neurological deficits.

[3] = system: platelet-leukocyte aggregates; test: Flow cytometry of platelet-leukocyte aggregates in whole blood after stroke; assay type: in vivo; conditions: whole blood at 24 hours after ischemia onset; vs saline-treated stroke rats; n=3 rats per group
Procedure: (§1) Elevated platelet activation and platelet-leukocyte interaction contribute importantly to pro-inflammatory and thrombotic events during ischemia-reperfusion injury after stroke. We used flow cytometry to analyze platelet activation and platelet-leukocyte aggregates in whole blood at 24 hours after ischemia onset (FIG. 9A).
(§2) Methods: Blood was drawn into a heparinized capillary tube via the retro-orbital plexus at 24 h after stroke. Whole blood was diluted 1:10 with Flow Cytometry Staining Buffer (eBioscience) containing rat Fc block anti-rat CD32. For evaluation of platelet activation, sample was co-stained with the FITC mouse anti-rat CD42d (1:200, RPM.4) for platelets and PE/Cy7 mouse anti-rat CD62P (1:100, RMP-1) for P-selectin expression. For detection of platelet-leukocyte aggregates (PLA) formation, samples were co-stained with FITC mouse anti-rat CD42d (1:200, RPM.4), PE mouse anti-rat granulocytes (1:100, RP-1), APC mouse anti-rat CD11b (1:50, WT.5) and PE/Cy7 mouse anti-rat CD45 (1:100, OX-1). Isotype-matched control antibodies were used to differentiate non-specific background signal from specific antibody signals. The samples were analyzed on the BD Accuri™ C6 flow cytometer.

microglia (Iba-1) = test: Immunostaining of microglia (Iba-1) expansion after thromboembolic stroke; assay type: in vivo, rats; conditions: poststroke; delayed tPA alone or with J147; n=3 animals per group
Procedure: (§3) Methods: At the indicated time point, animals were euthanized with CO2 and transcardially perfused with 200 mL ice-cold PBS (0.01 M, pH 7.4) followed by 4% paraformaldehyde (PFA). The brains were removed and post-fixed in 4% PFA solution for overnight at 4° C. Brain samples were then cryoprotected by immersion in 10%, 20%, and 30% gradient sucrose solutions for 48 h at 4° C. respectively. After that, the brains were embedded in optimal cutting temperature (OCT) compound. Coronal sections (15 um) were cut at 0.4 to 1.4 mm posterior to bragma using a cryostat and mounted on positively charged slides. Every twentieth coronal section for a total five sections was used for immunohistochemistry. The primary antibodies: IBa-1 (1:200, Wako), MPO (1:200, Abcam), MMP9 (1:100, R&D), EBA (endothelial barrier antigen, a marker for endothelium in the vessels, 1:500, Covance), fibrinogen (1:200, Dako), thrombocyte (1:200, lifespan) and PAI-1 (1:200, Novus Biologicals) were used. […]
(§4) For quantification, the number of immunoreactive vessels were counted in the ischemic boundary zone. All immunostaining data was analyzed by an investigator blinded to experimental groups using Image Pro plus software (version 5.1, Media Cybernetics, Inc.) and data are presented as the density of immunoreactive vessels relative to the imaged area (mm2) as described. Data were expressed as mean±standard error of the mean (SEM). […]

MMP-9 = test: Double immunohistochemistry for MMP-9 expression in the brain after thromboembolic stroke; assay type: in vivo, rats; conditions: 24 hours after stroke; tPA at 4 h alone or with J147; n=3 animals per group
Procedure: MMPs, in particular MMP-9, play a critical role in the stroke-associated blood-brain barrier (BBB) disruption, hemorrhagic transformation and neuroinflammation after stroke. Double immunohistochemistry was performed to determine MMP-9 expression in the brain at 24 hours after stroke (FIG. 7A).
Methods: At the indicated time point, animals were euthanized with CO2 and transcardially perfused with 200 mL ice-cold PBS (0.01 M, pH 7.4) followed by 4% paraformaldehyde (PFA). The brains were removed and post-fixed in 4% PFA solution for overnight at 4° C. Brain samples were then cryoprotected by immersion in 10%, 20%, and 30% gradient sucrose solutions for 48 h at 4° C. respectively. After that, the brains were embedded in optimal cutting temperature (OCT) compound. Coronal sections (15 um) were cut at 0.4 to 1.4 mm posterior to bragma using a cryostat and mounted on positively charged slides. […]
as §4

[4] = system: thromboembolic middle cerebral artery occlusion (MCAO); test: J147+tPA expanded study: infarct volume, intracerebral hemorrhage, mortality (Example 4A); assay type: in vivo, SD rats
Procedure: Objective: To determine whether J147 can prevent tPA-associated brain hemorrhage and extend the treatment time window of tPA in a clinically relevant thromboembolic stroke model in rats. • J147 compound: Stock solution: 60 mg/ml DMSO, in 60 ul/vial, stored at −20° C. • Working solution: 3 mg/ml in 5% DMSO, 70% PEG200 and 25% normal saline, prepared prior to injection. • One vial stock solution was warmed at 37° C. and mixed with 1140 ul sterilized solution (PEG200: saline, 2.8:1). • Recombinant human tPA (Alteplase, 2.2 mg/vial): Reconstituted with 1.1 ml water (2 mg/ml). 10 mg/kg, 10% bonus injection, 90%30 min. via mini pump. A. Infarct Volume and Intracerebral Hemorrhage
Methods: Male SD rats (280-300 g) were subjected to thromboembolic middle cerebral artery occlusion (MCAO) and treated with saline at 4 hours, tPA (tissue-type plasminogen activator; 10 mg/kg, IV) at 4 hours, and combined J147 (10 mg/kg, IV) plus tPA at 4 hours after onset of ischemia. Bederson score was examined prior to the sacrifice at 72 h after stroke. Infarct volumes, brain hemorrhage, and animal mortality were measured.

[5] = system: platelet P-selectin (CD62P); test: Flow cytometry of platelet activation (P-selectin) in whole blood after stroke; assay type: in vivo; conditions: whole blood at 24 hours after ischemia onset; vs saline-treated stroke rats
Procedure: as §1, §2

fibrin/fibrinogen = test: Double immunofluorescence of intravascular fibrin/fibrinogen deposition in brain microvessels; assay type: in vivo; conditions: stroke rats; delayed tPA alone or with J147
Procedure: as §3, §4

platelets = test: Double immunofluorescence of platelet (thrombocyte) accumulation in brain microvessels; assay type: in vivo; conditions: stroke rats; delayed tPA alone or with J147
Procedure: as §3, §4

[6] = system: neutrophil (MPO) infiltration; test: Immunostaining of brain neutrophil (MPO) infiltration after thromboembolic stroke; assay type: in vivo, rats; conditions: poststroke; delayed tPA alone or with J147; n=3 animals per group
Procedure: as §3, §4

[7] = J147 1.0, 10, 30 mg/kg at 2 hours after onset of ischemia, 72 h after stroke, dose-dependent, vs vehicle
[8] = tPA 10 mg/kg IV at 4 hours, alone or with J147 10 mg/kg IV, 72 h after stroke

Row | Compound | infarct volumes [1, 7] | neurological deficit (Bederson score) [1, 7] | effective optimal dose ([1]; treatment of acute ischemic stroke in rats, doses tested 1.0, 10, 30 mg/kg) | protection from stroke (infarct volume, TTC staining) (eMCAO, 4 μm blood clot) | infarct volume (TTC staining) relative to placebo ([2]; 1 mg/kg J147 iv) | infarct volume (TTC staining) relative to placebo ([2]; 10 mg/kg J147 iv) | infarct volume (TTC staining) relative to placebo ([2]; J147 intraperitoneally) | optimal effective dose ([2]; iv, immediately after reperfusion, doses tested 1, 10 and 30 mg/kg) | platelet-granulocyte (platelet-neutrophil) aggregates [3] | microglia expansion (number of Iba-1-positive cells) (microglia (Iba-1)) | MMP-9 expression on individual cells and brain microvessels (MMP-9) | brain hemorrhage / hemorrhagic transformation [4, 8] | brain infarction / infarct volume [4, 8] | mortality rate ([4]; treatment at 4 h after onset of ischemia, log-rank test, saline 25%) | Death (number of rats) ([4]; treatment at 4 h after onset of ischemia, tPA n = 22, J147 plus tPA n = 17, saline 3 of 12) | platelet activation (platelet P-selectin expression) [5] | fibrin/fibrinogen deposited in downstream microvessels (fibrin/fibrinogen) | platelets deposited in downstream microvessels (platelets) | neutrophil (MPO positive cells) infiltration into the brain parenchyma [6]
1 | COc1cccc(/C=N/N(C(=O)C(F)(F)F)c2ccc(C)cc2C)c1 [Compound J147] | significantly reduced | significantly reduced | 10 mg/kg | fails to provide any significant protection | insignificant reduction | large reduction | modest reduction | 10 mg/kg | – | – | – | – | – | – | – | – | – | – | –
2 | tPA: Recombinant human tPA (Alteplase), tissue-type plasminogen activator; thrombolytic approved for the treatment of stroke | – | – | – | – | – | – | – | – | no additional effect | no significant effect | further increased | worsened | did not decrease | 32% | 7 | no additional effect | markedly increased | markedly increased | further augmented
